According to ChEMBL document CHEMBL5365487, “Development of 18F-Labeled PET Tracer Candidates for Imaging of the Abelson Non-receptor Tyrosine Kinase in Parkinson's Disease” (J Med Chem, 2023):

How the values were obtained:
[1] = Metabolic stability in human liver microsomes assessed as stability measured after 30 mins by LC-MS/MS analysis; assay type: ADME, Microsome; conditions: read-out: Drug metabolism
[2] = Plasma protein binding in CD-1 ISG mouse plasma measured after 4 hrs by equilibrium dialysis based LC-MS/MS analysis; assay type: ADME, cell-free; conditions: read-out: PPB (converted)
[3] = Half life in C57BL6 mouse brain at 1 mg/kg, iv single administration measured upto 24 hrs by LC-MS/MS analysis; assay type: ADME, organism-based
[4] = AUC in C57BL6 mouse brain at 1 mg/kg, iv single administration measured upto 24 hrs by LC-MS/MS analysis; assay type: ADME, organism-based; design: time < 24 hrs, dose 1 mg/kg, route iv
[5] = AUC in C57BL6 mouse brain assessed as free brain drug at 1 mg/kg, iv single administration measured upto 24 hrs by LC-MS/MS analysis; assay type: ADME, organism-based; design: time < 24 hrs, dose 1 mg/kg, route iv; conditions: in vivo
[6] = Initial plasma concentration in C57BL6 mouse plasma at 1 mg/kg, iv single administration measured upto 24 hrs by LC-MS/MS analysis; assay type: ADME, organism-based
[7] = AUC (0 to last) in C57BL6 mouse brain at 1 mg/kg, iv single administration measured upto 24 hrs by LC-MS/MS analysis; assay type: ADME, organism-based; design: time < 24 hrs, dose 1 mg/kg, route iv
[8] = Ratio of total drug brain AUC to total plasma AUC in C57BL6 mouse brain at 1 mg/kg, iv single administration measured upto 24 hrs by LC-MS/MS analysis; assay type: ADME, organism-based
[9] = molecular target: Interleukin-1 receptor-associated kinase 1 (Homo sapiens) (UniProt P51617); assay: Inhibition of IRAK1 (unknown origin) at 1 uM by ADP-Glo kinase assay relative to control
[10] = molecular target: T1, Interleukin-1 receptor-associated kinase 3 (Homo sapiens) (UniProt Q9Y616); assay: Inhibition of IRAK3 (unknown origin) at 1 uM by ADP-Glo kinase assay relative to control
T1 sequence (whole entry): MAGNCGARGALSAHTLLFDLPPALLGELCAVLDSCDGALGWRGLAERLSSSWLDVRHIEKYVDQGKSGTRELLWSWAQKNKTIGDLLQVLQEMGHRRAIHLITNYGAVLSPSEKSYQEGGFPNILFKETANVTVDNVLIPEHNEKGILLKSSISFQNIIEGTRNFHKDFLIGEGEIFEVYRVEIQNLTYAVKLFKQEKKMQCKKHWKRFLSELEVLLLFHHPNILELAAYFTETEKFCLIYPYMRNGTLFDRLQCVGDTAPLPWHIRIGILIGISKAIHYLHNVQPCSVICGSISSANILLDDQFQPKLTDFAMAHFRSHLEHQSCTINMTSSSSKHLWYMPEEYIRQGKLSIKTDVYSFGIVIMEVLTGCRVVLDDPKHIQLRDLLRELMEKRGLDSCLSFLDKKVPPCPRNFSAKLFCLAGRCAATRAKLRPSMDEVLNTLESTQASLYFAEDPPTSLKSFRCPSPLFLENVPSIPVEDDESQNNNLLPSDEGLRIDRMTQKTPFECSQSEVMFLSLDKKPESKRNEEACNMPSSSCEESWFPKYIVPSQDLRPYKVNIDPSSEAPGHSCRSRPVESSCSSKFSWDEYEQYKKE

[11] = molecular target: Tyrosine-protein kinase Lck (Homo sapiens) (UniProt P06239); assay: Inhibition of LCK (unknown origin) at 1 uM by ADP-Glo kinase assay relative to control
[12] = molecular target: Leucine-rich repeat serine/threonine-protein kinase 2 (Homo sapiens) (UniProt Q5S007); assay: Inhibition of LRRK2 (unknown origin) at 1 uM by ADP-Glo kinase assay relative to control
[13] = molecular target: Receptor-interacting serine/threonine-protein kinase 2 (Homo sapiens) (UniProt O43353); assay: Inhibition of RIPK2 (unknown origin) at 1 uM by ADP-Glo kinase assay relative to control
[14] = Half life in C57BL6 mouse brain at 0.5 mg/kg, iv single administration measured upto 24 hrs by LC-MS/MS analysis; assay type: ADME, organism-based
[15] = AUC in C57BL6 mouse brain at 0.5 mg/kg, iv single administration measured upto 24 hrs by LC-MS/MS analysis; assay type: ADME, organism-based; design: dose 0.5 mg/kg, time < 24 hrs, route iv
[16] = AUC in C57BL6 mouse brain assessed as free brain drug at 0.5 mg/kg, iv single administration measured upto 24 hrs by LC-MS/MS analysis; assay type: ADME, organism-based; design: dose 0.5 mg/kg, time < 24 hrs, route iv; conditions: in vivo
[17] = Initial plasma concentration in C57BL6 mouse plasma at 0.5 mg/kg, iv single administration measured upto 24 hrs by LC-MS/MS analysis; assay type: ADME, organism-based
[18] = AUC (0 to last) in C57BL6 mouse brain at 0.5 mg/kg, iv single administration measured upto 24 hrs by LC-MS/MS analysis; assay type: ADME, organism-based; design: time < 24 hrs, dose 0.5 mg/kg, route iv
[19] = Ratio of total drug brain AUC to total plasma AUC in C57BL6 mouse brain at 0.5 mg/kg, iv single administration measured upto 24 hrs by LC-MS/MS analysis; assay type: ADME, organism-based
[20] = Ratio of free drug brain AUC to free plasma AUC in C57BL6 mouse brain at 0.5 mg/kg, iv single administration measured upto 24 hrs by LC-MS/MS analysis; assay type: ADME, organism-based; conditions: read-out: K(p,uu,brain)
[21] = Ex vivo biodistribution in Hsd:ICR (CD-1) mouse assessed as brain uptake at 12.5 to 26.9 MBq, iv measured for 5 to 90 mins by gamma counter analysis; assay type: ADME, organism-based; conditions: dose lower 12.5 MBq, time lower 5 min, dose upper 26.9 MBq, time upper 90 min
[22] = Ex vivo biodistribution in Hsd:ICR (CD-1) mouse assessed as brain uptake at 12.5 to 26.9 MBq, iv measured for 5 to 90 mins in presence of imidazole [1,2-alpha]pyridine by gamma counter analysis; assay type: ADME, organism-based; conditions: dose lower 12.5 MBq, time lower 5 min, dose upper 26.9 MBq, time upper 90 min
[23] = Ex vivo biodistribution in Hsd:ICR (CD-1) mouse assessed as brain uptake at 12.5 to 26.9 MBq, iv measured for 5 mins by gamma counter analysis; assay type: ADME, organism-based; conditions: dose 12.5-26.9 MBq
[24] = Ex vivo biodistribution in Hsd:ICR (CD-1) mouse assessed as blood uptake at 12.5 to 26.9 MBq, iv measured after 90 mins by gamma counter analysis; assay type: ADME, organism-based; conditions: dose 12.5-26.9 MBq
[25] = In vivo stability in iv dosed Hsd:ICR (CD-1) mouse plasma assessed as stability measured after 90 mins by radio-HPLC analysis; assay type: ADME, organism-based; conditions: for Stability: in vivo, iv
[26] = In vivo stability in iv dosed Hsd:ICR (CD-1) mouse plasma assessed as stability measured after 5 mins by radio-HPLC analysis; assay type: ADME, organism-based; conditions: for remaining at 5 min: Hsd:ICR (CD-1), plasma, read-out: Stability
[27] = In vivo stability in iv dosed Hsd:ICR (CD-1) mouse plasma assessed as stability measured after 45 mins by radio-HPLC analysis; assay type: ADME, organism-based; conditions: for remaining at 0.75 h: Hsd:ICR (CD-1), plasma, read-out: Stability
[28] = In vivo stability in iv dosed Hsd:ICR (CD-1) mouse brain assessed as stability measured after 5 to 90 mins by radio-HPLC analysis; assay type: ADME, organism-based; conditions: time 5-90 min
[29] = Ex vivo biodistribution in Hsd:ICR (CD-1) mouse assessed as thigh bone uptake at 12.5 to 26.9 MBq, iv measured for 5 mins by gamma counter analysis; assay type: ADME, organism-based; conditions: dose 12.5-26.9 MBq
[30] = Ex vivo biodistribution in Hsd:ICR (CD-1) mouse assessed as thigh bone uptake at 12.5 to 26.9 MBq, iv measured after 90 mins by gamma counter analysis; assay type: ADME, organism-based; conditions: dose 12.5-26.9 MBq
[31] = In vivo stability in iv dosed Hsd:ICR (CD-1) mouse brain assessed as stability measured after 5 mins by radio-HPLC analysis; assay type: ADME, organism-based; conditions: read-out: Stability
[32] = In vivo stability in iv dosed Hsd:ICR (CD-1) mouse brain assessed as stability measured after 90 mins by radio-HPLC analysis; assay type: ADME, organism-based; conditions: read-out: Stability
[33] = Biodistribution in Hsd:ICR (CD-1) mouse assessed as brain uptake at 12.5 to 26.9 MBq, iv in presence of imidazole [1,2-alpha]pyridine measured at early time points by PET imaging analysis; assay type: ADME, organism-based; conditions: in vivo, dose 12.5-26.9 MBq

Leucine-rich repeat serine/threonine-protein kinase 2 (Homo sapiens), sequence (Q5S007 whole entry): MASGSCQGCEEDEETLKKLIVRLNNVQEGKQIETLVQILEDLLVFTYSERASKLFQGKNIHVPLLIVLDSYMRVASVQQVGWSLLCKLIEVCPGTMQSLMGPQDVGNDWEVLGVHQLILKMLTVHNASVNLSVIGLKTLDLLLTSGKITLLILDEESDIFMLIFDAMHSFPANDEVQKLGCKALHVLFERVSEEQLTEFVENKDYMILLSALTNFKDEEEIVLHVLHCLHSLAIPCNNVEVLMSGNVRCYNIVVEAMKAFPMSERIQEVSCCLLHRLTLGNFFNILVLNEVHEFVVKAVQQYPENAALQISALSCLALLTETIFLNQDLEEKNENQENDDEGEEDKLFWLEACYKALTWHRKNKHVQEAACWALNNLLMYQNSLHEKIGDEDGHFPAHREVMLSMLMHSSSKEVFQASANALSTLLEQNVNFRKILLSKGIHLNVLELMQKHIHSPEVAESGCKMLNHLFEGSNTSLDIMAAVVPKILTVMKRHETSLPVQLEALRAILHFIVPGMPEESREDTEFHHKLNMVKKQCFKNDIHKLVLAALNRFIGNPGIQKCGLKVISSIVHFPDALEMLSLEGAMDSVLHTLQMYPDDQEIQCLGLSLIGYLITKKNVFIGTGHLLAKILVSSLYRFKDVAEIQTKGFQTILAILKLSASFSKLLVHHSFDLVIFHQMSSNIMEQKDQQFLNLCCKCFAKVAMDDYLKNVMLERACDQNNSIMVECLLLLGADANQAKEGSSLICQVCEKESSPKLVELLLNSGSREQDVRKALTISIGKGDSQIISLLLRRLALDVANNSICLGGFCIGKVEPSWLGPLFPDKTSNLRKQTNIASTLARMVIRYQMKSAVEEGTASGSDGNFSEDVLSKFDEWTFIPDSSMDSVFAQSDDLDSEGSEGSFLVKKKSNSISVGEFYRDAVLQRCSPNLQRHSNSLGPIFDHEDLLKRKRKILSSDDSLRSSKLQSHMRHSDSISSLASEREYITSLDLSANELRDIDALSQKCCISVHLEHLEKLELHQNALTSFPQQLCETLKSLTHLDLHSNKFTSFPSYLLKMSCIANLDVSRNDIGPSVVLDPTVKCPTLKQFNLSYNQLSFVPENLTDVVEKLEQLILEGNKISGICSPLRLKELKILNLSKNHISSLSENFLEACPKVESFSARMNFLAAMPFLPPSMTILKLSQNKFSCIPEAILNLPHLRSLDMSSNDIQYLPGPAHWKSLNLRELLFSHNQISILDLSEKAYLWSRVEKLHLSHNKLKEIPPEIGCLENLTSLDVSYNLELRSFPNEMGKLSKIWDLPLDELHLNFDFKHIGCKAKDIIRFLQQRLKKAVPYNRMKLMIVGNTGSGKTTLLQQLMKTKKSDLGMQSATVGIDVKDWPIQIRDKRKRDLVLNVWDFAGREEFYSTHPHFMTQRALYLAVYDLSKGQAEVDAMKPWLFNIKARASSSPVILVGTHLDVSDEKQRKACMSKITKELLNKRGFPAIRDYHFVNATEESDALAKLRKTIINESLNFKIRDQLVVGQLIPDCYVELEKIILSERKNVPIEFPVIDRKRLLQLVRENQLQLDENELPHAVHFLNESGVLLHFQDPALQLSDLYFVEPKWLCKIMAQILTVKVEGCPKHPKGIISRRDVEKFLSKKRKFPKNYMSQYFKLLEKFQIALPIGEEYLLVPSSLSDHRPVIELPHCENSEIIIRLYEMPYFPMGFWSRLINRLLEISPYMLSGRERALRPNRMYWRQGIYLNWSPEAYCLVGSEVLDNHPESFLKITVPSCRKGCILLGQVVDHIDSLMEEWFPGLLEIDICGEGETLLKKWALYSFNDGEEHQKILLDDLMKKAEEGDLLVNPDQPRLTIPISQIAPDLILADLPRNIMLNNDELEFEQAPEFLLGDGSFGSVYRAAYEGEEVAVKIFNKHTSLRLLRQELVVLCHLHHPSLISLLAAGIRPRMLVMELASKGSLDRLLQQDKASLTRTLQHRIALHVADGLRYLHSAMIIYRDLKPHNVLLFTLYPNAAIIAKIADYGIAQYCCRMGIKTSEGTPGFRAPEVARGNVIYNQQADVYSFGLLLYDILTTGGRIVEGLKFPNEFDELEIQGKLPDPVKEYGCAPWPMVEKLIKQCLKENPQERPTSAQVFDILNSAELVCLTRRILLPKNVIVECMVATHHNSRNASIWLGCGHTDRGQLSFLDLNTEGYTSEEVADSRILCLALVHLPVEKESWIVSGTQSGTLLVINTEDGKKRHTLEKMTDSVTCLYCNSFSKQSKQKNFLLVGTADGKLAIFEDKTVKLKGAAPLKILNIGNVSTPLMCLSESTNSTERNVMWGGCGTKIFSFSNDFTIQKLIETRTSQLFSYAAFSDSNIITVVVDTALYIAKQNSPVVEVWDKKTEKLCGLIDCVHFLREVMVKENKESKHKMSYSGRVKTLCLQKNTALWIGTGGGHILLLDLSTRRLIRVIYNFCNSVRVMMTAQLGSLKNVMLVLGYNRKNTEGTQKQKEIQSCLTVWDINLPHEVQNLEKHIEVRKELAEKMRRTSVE
Interleukin-1 receptor-associated kinase 1 (Homo sapiens), sequence (P51617 whole entry, looked up): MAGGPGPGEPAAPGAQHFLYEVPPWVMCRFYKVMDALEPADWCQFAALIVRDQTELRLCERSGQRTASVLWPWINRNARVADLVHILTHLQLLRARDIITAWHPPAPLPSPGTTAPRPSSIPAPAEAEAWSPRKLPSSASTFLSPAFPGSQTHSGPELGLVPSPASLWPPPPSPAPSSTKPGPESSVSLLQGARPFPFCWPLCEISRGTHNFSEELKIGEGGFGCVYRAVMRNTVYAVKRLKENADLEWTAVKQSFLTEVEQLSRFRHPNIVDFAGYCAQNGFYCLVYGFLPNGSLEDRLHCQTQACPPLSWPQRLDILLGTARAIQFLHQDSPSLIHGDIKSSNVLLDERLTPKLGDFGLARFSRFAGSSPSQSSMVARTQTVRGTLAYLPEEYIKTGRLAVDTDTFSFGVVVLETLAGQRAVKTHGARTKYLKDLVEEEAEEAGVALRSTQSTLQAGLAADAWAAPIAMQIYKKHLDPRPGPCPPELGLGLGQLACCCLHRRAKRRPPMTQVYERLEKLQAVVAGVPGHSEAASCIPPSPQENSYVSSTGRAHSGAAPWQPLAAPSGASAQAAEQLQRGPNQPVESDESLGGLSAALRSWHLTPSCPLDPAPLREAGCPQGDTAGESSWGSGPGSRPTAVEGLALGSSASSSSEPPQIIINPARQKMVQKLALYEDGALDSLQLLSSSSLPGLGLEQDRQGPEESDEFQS
Receptor-interacting serine/threonine-protein kinase 2 (Homo sapiens), sequence (O43353 whole entry): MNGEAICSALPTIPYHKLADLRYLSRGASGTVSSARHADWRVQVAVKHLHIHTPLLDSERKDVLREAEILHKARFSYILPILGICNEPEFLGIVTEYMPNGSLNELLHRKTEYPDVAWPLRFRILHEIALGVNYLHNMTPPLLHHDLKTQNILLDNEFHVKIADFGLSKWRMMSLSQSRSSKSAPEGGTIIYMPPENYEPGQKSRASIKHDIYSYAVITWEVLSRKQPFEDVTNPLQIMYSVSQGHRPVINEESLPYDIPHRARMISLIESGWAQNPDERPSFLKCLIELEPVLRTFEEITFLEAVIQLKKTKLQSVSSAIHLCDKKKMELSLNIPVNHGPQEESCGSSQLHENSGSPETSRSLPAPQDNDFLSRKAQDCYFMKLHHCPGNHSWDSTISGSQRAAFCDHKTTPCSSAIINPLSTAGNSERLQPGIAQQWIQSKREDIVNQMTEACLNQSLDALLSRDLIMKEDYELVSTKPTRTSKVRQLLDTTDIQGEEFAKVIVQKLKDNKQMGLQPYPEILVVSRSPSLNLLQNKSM
Tyrosine-protein kinase Lck (Homo sapiens), sequence (P06239 2-509 limits assumed): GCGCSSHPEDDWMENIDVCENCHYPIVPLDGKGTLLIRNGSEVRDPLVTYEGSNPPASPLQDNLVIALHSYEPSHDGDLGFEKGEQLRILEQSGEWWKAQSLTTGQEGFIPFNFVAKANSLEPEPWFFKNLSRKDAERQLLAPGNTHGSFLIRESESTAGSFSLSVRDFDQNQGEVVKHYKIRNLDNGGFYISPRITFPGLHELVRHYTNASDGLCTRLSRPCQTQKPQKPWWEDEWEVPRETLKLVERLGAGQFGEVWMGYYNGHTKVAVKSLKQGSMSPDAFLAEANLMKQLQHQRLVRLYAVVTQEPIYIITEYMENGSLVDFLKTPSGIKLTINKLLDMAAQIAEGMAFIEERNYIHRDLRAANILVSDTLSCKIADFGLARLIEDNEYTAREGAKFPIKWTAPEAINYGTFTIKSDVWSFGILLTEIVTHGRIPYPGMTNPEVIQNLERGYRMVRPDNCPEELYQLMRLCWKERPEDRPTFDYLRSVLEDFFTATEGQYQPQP

remaining at 0.5 h [1] [%]	fraction unbound at 4 h [2]	half-life [3] [min]	AUC at 24 h [4] [ng·h/mL]	AUC [5] [ng·h/mL]	C0 at 24 h [6] [ng/mL]	AUC(0-t) at 24 h [7] [ng·h/mL]	Kp at 24 h [8]	Drug uptake [21]	Drug uptake [22]	Drug uptake [23] [% ID/g]	Drug uptake [24] [% ID/g]	Stability [25]	remaining at 5 min [26] [%]	remaining at 0.75 h [27] [%]	remaining at 5 min [31] [%]	remaining at […] [32] [%]	SMILES	other results
< 30	0.0734	12	182	5	597	597	0.31	–	–	–	–	–	–	–	–	–	O=C(Nc1cn2cc(-c3ccccc3CCF)ccc2n1)[C@@H]1C[C@@H]1F	–
< 30	0.0192	–	–	–	–	–	–	–	–	–	–	–	–	–	–	–	Cc1cc(F)ncc1-c1ccc2nc(NC(=O)[C@@H]3C[C@@H]3F)sc2c1	inhibition [9]: > 80%; inhibition [10]: > 80%; inhibition [11]: > 80%; inhibition [12]: > 80%; inhibition [13]: > 80%; half-life [14]: 540 min; AUC at 24 h [15]: 1670 ng·h/mL; AUC [16]: 10 ng·h/mL; C0 at 24 h [17]: 1580 ng/mL; AUC(0-t) at 24 h [18]: 3380 ng·h/mL; Kp at 24 h [19]: 0.49; Kp uu at 24 h [20]: 0.15
–	–	–	–	–	–	–	–	Active	Active	4.2	1.2	–	–	–	–	–	Cc1cc([18F])ncc1-c1ccc2nc(NC(=O)[C@@H]3C[C@@H]3F)sc2c1	remaining at […] ([25]; Hsd:ICR (CD-1), plasma, read-out: Stability): 91%; Stability ([26]; in vivo, iv, 5 min): Stable; Stability ([27]; in vivo, iv, 0.75 h): Stable; Stability [28]: 99.42%
< 30	0.0692	30	112	4	536	536	0.21	–	–	–	–	–	–	–	–	–	O=C(Nc1cn2cc(-c3cccc(F)c3OCCF)ccc2n1)[C@@H]1C[C@@H]1F	–
–	–	–	–	–	–	–	–	Active	Active	3.1	0.3	Unstable	72	13	93	8.5	O=C(Nc1cn2cc(-c3ccccc3CC[18F])ccc2n1)[C@@H]1C[C@@H]1F	Drug uptake [29]: 1.6 % ID/g; Drug uptake [30]: 2.7 % ID/g; Drug uptake [33]: Active
–	–	–	–	–	–	–	–	Active	Active	1.1	0.2	Unstable	64	18	88	33	O=C(Nc1cn2cc(-c3cccc(F)c3OCC[18F])ccc2n1)[C@@H]1C[C@@H]1F	–
